From patent US9056835B2, “LPA2 receptor-specific benzoic acid derivatives” (University of Tennessee Research Foundation, priority 2012, dated 2015) come the findings set out here.

As a reminder, the EC50 is the midpoint of the concentration-response curve. Broadly, the Emax is the greatest response seen or fitted, relative to the assay's reference.

The target in the assay is LPA2 (Homo sapiens, UniProt Q9HBW0). Nature of the assay: LPA receptor-mediated Ca2+ mobilization assay, LPA2 (RH7777 cells stably expressing LPA2). The assay is classed as cell-based. Set-up: expressed in transfected cells. Conditions: for receptor specificity of activation among established and putative LPA GPCRs: up to 10 μM. Here is the method: Similarity searches were performed separately using each fingerprint to quantitate similarity. Hits meeting the 80% similarity threshold from each search were ranked based on the Tanimoto coefficient measure of similarity to a target molecule NSC12404, and the top 75 unique hits from each fingerprint search were selected for further analysis. […] This selected a diverse subset of 27 compounds for biological evaluation by choosing the middle compounds in each cluster. These 27 compounds were tested in Ca^2+ mobilization assays at a concentration of 10 μM using stable cell lines individually expressing LPA2 and also in vector-transfected control cells. Hits activating LPA2 were further tested using cells expressing the other established and putative LPA GPCRs. […] They arbitrarily selected GRI977143 for further characterization in cell-based assays.
The newly-synthesized compounds were tested for their ability to induce Ca^2+ transients in RH7777 cells stably expressing the LPA2 receptor.
The cells were loaded with Fura-2-acetoxymethyl esther (Fura-2/AM) in Krebs buffer containing 0.01% pluronic acid for 30 min and rinsed with Krebs buffer before measuring Ca^2+ mobilization. The ratio of peak emissions at 510 nm after 2 min of ligand addition was determined for excitation wavelengths of 340 nm/380 nm. All samples were run in quadruplicate. […] The half maximally effective concentration (EC50), and inhibitory constant (Ki) values were calculated by fitting a sigmoid function to dose-response data points using KaleidaGraph software (version 4.1, Synergy Software; […]).
Mouse embryonic fibroblast (MEF) cells were isolated from E13.5 LPA1&2 double knockout (DKO) embryos. MEFs were transduced with empty vector or LPA2-containing lentiviruses and selected with 1.5 μg/ml puromycin. Cells were maintained in Dulbecco's modified Eagle medium (DMEM) supplemented with 10% (V/V) fetal bovine serum (FBS), 2 mM L-glutamine, 100 U/mL penicillin, and 100 μg/mL streptomycin. Serum-free medium contained 0.1% (W/V) BSA in DMEM. The rat intestinal epithelial cell line 6 (IEC-6) was obtained from the American Type Culture Collection (Rockville, Md.) at passage 13; passages 16-21 were used in all experiments. IEC-6 cells were maintained in a humidified 37° C. incubator in an atmosphere of 90% air and 10% CO2. Growth medium consisted of DMEM supplemented with 5% heat inactivated FBS, 10 μg/mL insulin, and 50 μg/mL gentamycin. The composition of the serum-starvation medium was the same as that of the full growth medium except that it contained no FBS. The McArdle rat hepatoma cell line (RH7777) stably expressing LPA2 receptors was a gift from Dr. Fumikazu Okajima (Gunma University, Maebashi, Japan). RH7777 cells stably expressing LPA1 or LPA3 receptors were generated in-house and had been characterized earlier. Wild type and LPA receptor (LPAR) stably transfected RH7777 cells were grown in DMEM supplemented with 10% FBS and 2 mM L-glutamine in the presence of 250 μg/ml G418. Chinese hamster ovary (CHO) cells stably expressing either vector or LPA4 receptor were a kind gift from Dr. Takao Shimizu (Tokyo University; Tokyo, Japan). Cells were cultured in Ham's F12 medium containing 10% FBS, 2 mM L-glutamine, and 350 μg/ml G418. Rat neuroblastoma cells (B103) were transduced with the lentivirus harboring wild type of FLAG-LPA5 and selected with puromycin to establish the stable cell lines. The stable cells were maintained in DMEM supplemented with 10% FBS and 0.4 μg/ml puromycin. GPR87- and P2Y10-expressing CHO cells and vector-transfected control cells were a gift from Dr. Norihisha Fujita (Ritsumeikan University; Shiga, Japan). The highly invasive MM1 rat hepatoma cells (gift from Dr. Michiko Mukai, Osaka University, Japan) were grown in suspension in DMEM supplemented with 10% (V/V) FBS, 2 mM L-glutamine, 100 U/mL penicillin, and 100 μg/mL streptomycin.
Background: A change in cytosolic calcium serves as a functional read-out for many receptors and channels.

Setting [1] is: agonist, Ca2+ mobilization, read-out: LPA2 EC50.

Read-outs that look alike come from different tables or passages of the source.

Chain of LPA2 (Q9HBW0 whole entry): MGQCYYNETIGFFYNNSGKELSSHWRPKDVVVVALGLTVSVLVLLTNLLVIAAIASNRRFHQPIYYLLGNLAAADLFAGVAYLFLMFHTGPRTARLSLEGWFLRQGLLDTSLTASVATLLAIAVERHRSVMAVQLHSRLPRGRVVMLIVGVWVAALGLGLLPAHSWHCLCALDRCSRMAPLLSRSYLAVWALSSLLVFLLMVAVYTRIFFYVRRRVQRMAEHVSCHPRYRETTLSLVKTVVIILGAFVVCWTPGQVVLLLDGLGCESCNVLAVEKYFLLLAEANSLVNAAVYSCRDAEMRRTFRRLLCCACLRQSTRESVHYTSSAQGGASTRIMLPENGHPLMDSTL

`O=C(O)c1cc(Cl)c(Cl)cc1C(=O)Nc1ccc2c(c1)C(=O)c1ccccc1-2` [Compound H2L5547924]: the “receptor specificity of activation among established and putative LPA GPCRs” value (shortened to “receptor specificity”) is given as “activated only LPA2”. For the same compound, the EC50 under setting [1] is 2.8 µM.

As for `O=C(O)c1ccccc1C(=O)Nc1ccc2c(c1)C(=O)c1ccccc1C2=O` [Compound H2L5828102], the “receptor specificity” value is on record as “activated only LPA2”. Moreover, the EC50 under setting [1] was determined as 3.3 µM.

Regarding `O=C(O)c1ccccc1C(=O)Nc1ccc2c(c1)C(=O)c1ccccc1-2` [NSC12404], the EC50 under setting [1] came to 9.5 µM.

Regarding `O=C(O)c1ccccc1SCCCN1C(=O)c2cccc3cccc(c23)C1=O` [GRI977143], the “receptor specificity” value is recorded as “activated only LPA2”. For the same compound, for the setting “Ca2+ transients, RH7777 cells stably expressing LPA2”, the Emax amounted to 64%. The EC50 (Ca2+ transients, RH7777 cells stably expressing LPA2, read-out: EC50 (μM) (RH7777)) was found to be 3.3 µM. Also, the EC50 under setting [1] amounted to 3.3 µM.

Turning to octadecenyl thiophosphate [OTP], the EC50 under setting [1] came out at 0.336 µM.
